Reference: patent publication US20100239498A1, “METHOD OF MAINTAINING THE FUNCTION OF LIVER TISSUE CELLS OVER LONG TIME” (priority 2006, published 2010)

Test system: CYP1A
Assay: CYP1A induction in transplanted murine subcutaneous hepatic tissue, tissue staining (Example 3)
Format: in vivo, mouse
Settings: 120 days after transplantation; intraperitoneal once a day for three days; tissue staining 24 hours after final administration
Protocol: The murine hepatic tissue cell sheet as obtained in Example 1 was transplanted by application into a murine subcutaneous site having undergone the induction of angiogenesis in accordance with the method of transplanting a hepatic cell sheet as shown in Example 1. One hundred twenty days after transplantation, 3-methylcholantrene (Sigma-Aldrich, St. Louis, Mo.) was intraperitoneally administered once a day and continuously for three days, and 24 hours after the final administration, the mouse was killed and the hepatic tissue prepared was subjected to tissue staining (Example 3). […] Further, CYP1A means CYP1A activity.

Cc1ccc2cc3c(ccc4ccccc43)c3c2c1CC3 [3-methylcholantrene]
induction of CYP1A (CYP1A activity) in prepared murine subcutaneous hepatic tissue: strongly induced
